The source made the active and inactive calls. The calls are words filed in the database; no cut-off is given here.
Columns and labels:
HT-29 [1] = assay: Effective dose required to kill 90% of HT-29 cells with BCNU (40 uM); RPMI medium; type: functional, Homo sapiens
HT-29 [2] = assay: Effective dose required to kill 90% of HT-29 cells with BCNU (40 uM); folate-free RPMI medium; type: functional, Homo sapiens
HT-29 [3] = assay: Effective dose required to kill 90% HT-29 cells with BCNU (40 uM); type: functional, Homo sapiens
HT-29 [4] = assay: Effective dose required to kill 90% of HT-29 cells with BCNU (40 uM); type: functional, Homo sapiens
HT-29 [5] = assay: Effective dose required to kill 90% of HT-29 cells with BCNU (40 Dulbecco''s medium; type: functional, Homo sapiens
[6] = molecular target: T1, Methylated-DNA--protein-cysteine methyltransferase (Homo sapiens) (UniProt P16455)
T1 sequence (whole entry): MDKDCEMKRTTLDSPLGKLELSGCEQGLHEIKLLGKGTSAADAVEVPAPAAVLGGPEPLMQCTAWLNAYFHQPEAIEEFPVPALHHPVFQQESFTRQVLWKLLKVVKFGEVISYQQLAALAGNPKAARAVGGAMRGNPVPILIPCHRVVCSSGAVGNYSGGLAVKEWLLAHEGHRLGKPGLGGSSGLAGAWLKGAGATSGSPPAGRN
Description: In vitro inactivation of human O6-alkylguanine-DNA alkyltransferase in the absence of calf thymus DNA (ctDNA)

[7] = molecular target: T1, Methylated-DNA--protein-cysteine methyltransferase (Homo sapiens); remark: listed apart in the source
Description: In vitro inactivation of human O6-alkylguanine-DNA alkyltransferase in the presence of calf thymus DNA (ctDNA)

HT-29 [8] = assay: Effective dose required to kill 90% of HT-29 cells with BCNU (40 uM; type: functional, cell-based; conditions: Homo sapiens

Compound: Nc1nc(OCc2ccccc2)c2nc(CNc3ccc(C(=O)N[C@@H](CCC(=O)O)C(=O)O)cc3)cnc2n1
- ED90 (HT-29 [1]): 24000 nM
- ED90 (HT-29 [2]): 15000 nM

Compound: Nc1nc(OCc2ccccc2)c2nc(CO)cnc2n1
- ED90 (HT-29 [3]): 700 nM

Compound: Nc1nc(OCc2ccccc2)c2nc(C=O)cnc2n1
- ED90 (HT-29 [4]): 700 nM

Compound: Cc1nc2nc(N)nc(OCc3ccccc3)c2nc1C
- ED90 (HT-29 [4]): 600 nM

Compound: Nc1nc(OCc2ccccc2)c2nc[nH]c2n1 [6-O-BENZYLGUANINE]
- ED90 (HT-29 [5]): 400 nM
- ED90 (HT-29 [1]): 700 nM
- ED50 [6]: 320 nM
- ED50 [7]: 120 nM

Compound: Nc1nc(OCc2ccccc2)c2nccnc2n1
- ED90 (HT-29 [4]): 200 nM

Compound: Nc1nc(OCc2ccccc2)c2nc(C(=O)O)cnc2n1
- ED90 (HT-29 [8]): inactive

Reference: ChEMBL document CHEMBL1148373, “2-amino-O4-benzylpteridine derivatives: potent inactivators of O6-alkylguanine-DNA alkyltransferase” (2004)
